According to patent US12310975B2, “Modulators of BCL6 proteolysis and associated methods of use” (Arvinas Operations, Inc., priority 2019, dated 2025):

The molecules below were run against BCL6 (Homo sapiens (Human), UniProt P41182) (assay: Immunofluorescence high content imaging of BCL6 degradation in T47D cells). Settings: T47D cells.
Format: cell-based
Outline: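 Seed T47D in RPMI1640-10% FBS to reach ~70-90% confluence at endpoint; add degrader next day (11-point 3-fold series, top 0.1 or 1 μM final) for 3 days. Then fix, permeabilize, stain BCL6 with nuclear Hoechst, and image.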

Row | Dmax [%] | IC50 [nM] | Structure (SMILES)
1 | ≥ 70 | < 10 | CNC(=O)COc1cc2cc(Nc3nc(N4CCN(C(C)(C)C5CCN(c6cc(OC)cc(C(=O)NC7CCC(=O)NC7=O)c6F)CC5)CC4)ncc3Cl)ccc2n(C)c1=O (stereo not shown) [compound 356, 3-[4-(2-{4-[5-chloro-4-({1-methyl-3-[(methylcarbamoyl)methoxy]-2-oxo-1,2-dihydroquinolin-6-yl}amino)pyrimidin-2-yl]piperazin-1-yl}propan-2-yl)piperidin-1-yl]-N-(2,6-dioxopiperidin-3-yl)-2-fluoro-5-methoxybenzamide]
2 | < 50 | 50 to 100 | CCn1c(=O)c(OCC(=O)NC)cc2cc(Nc3nc(N4CCN([C@@H]5C[C@@H](COc6ccc7c(c6)C(=O)N(C6CCC(=O)NC6=O)C7=O)N(C)C5)CC4)ncc3Cl)ccc21 (stereo partly drawn) [compound 357, 2-({6-[(5-chloro-2-{4-[(3R,5S)-5-({[2-(2,6-dioxopiperidin-3-yl)-1,3-dioxo-2,3-dihydro-1H-isoindol-5-yl]oxy}methyl)-1-methylpyrrolidin-3-yl]piperazin-1-yl}pyrimidin-4-yl)amino]-1-ethyl-2-oxo-1,2-dihydroquinolin-3-yl}oxy)-N-methylacetamide]
3 | 50 to 70 | 10 to 50 | CNC(=O)COc1cc2cc(Nc3nc(N4CCN(CC5CCN(c6cnc(C(=O)NC7CCC(=O)NC7=O)c(OC)c6)CC5)CC4)ncc3Cl)ccc2n(C)c1=O (stereo not shown) [compound 359, 5-[4-({4-[5-chloro-4-({1-methyl-3-[(methylcarbamoyl)methoxy]-2-oxo-1,2-dihydroquinolin-6-yl}amino)pyrimidin-2-yl]piperazin-1-yl}methyl)piperidin-1-yl]-N-(2,6-dioxopiperidin-3-yl)-3-methoxypyridine-2-carboxamide]
4 | 50 to 70 | 10 to 50 | CNC(=O)COc1cc2cc(Nc3nc(N4CCC(CN5CCC(c6nc(C(=O)NC7CCC(=O)NC7=O)cs6)CC5)CC4)ncc3Cl)ccc2n(C)c1=O (stereo not shown) [compound 360, 2-[1-({1-[5-chloro-4-({1-methyl-3-[(methylcarbamoyl)methoxy]-2-oxo-1,2-dihydroquinolin-6-yl}amino)pyrimidin-2-yl]piperidin-4-yl}methyl)piperidin-4-yl]-N-(2,6-dioxopiperidin-3-yl)-1,3-thiazole-4-carboxamide]
5 | 50 to 70 | < 10 | CNC(=O)COc1cc2cc(Nc3nc(N4CCC(OC5CC6(C5)CN(c5ccc7c(c5)C(=O)N(C5CCC(=O)NC5=O)C7=O)C6)CC4)ncc3Cl)ccc2n(C(C)C)c1=O (stereo not shown) [compound 362, 2-{[6-({5-chloro-2-[4-({2-[2-(2,6-dioxopiperidin-3-yl)-1,3-dioxo-2,3-dihydro-1H-isoindol-5-yl]-2-azaspiro[3.3]heptan-6-yl}oxy)piperidin-1-yl]pyrimidin-4-yl}amino)-2-oxo-1-(propan-2-yl)-1,2-dihydroquinolin-3-yl]oxy}-N-methylacetamide]
6 | ≥ 70 | 10 to 50 | CCn1c(=O)c(OCC(=O)NC)cc2cc(Nc3nc(N4CCC(CN5CCC(c6ccc7c(c6)C(=O)N(C6CCC(=O)NC6=O)C7=O)CC5)CC4)ncc3Cl)ccc21 (stereo not shown) [compound 364, 2-{[6-({5-chloro-2-[4-({4-[2-(2,6-dioxopiperidin-3-yl)-1,3-dioxo-2,3-dihydro-1H-isoindol-5-yl]piperidin-1-yl}methyl)piperidin-1-yl]pyrimidin-4-yl}amino)-1-ethyl-2-oxo-1,2-dihydroquinolin-3-yl]oxy}-N-methylacetamide]
7 | ≥ 70 | < 10 | CNC(=O)COc1cc2cc(Nc3nc(N4CCC(CN5CCC(c6ccc7c(c6)C(=O)N(C6CCC(=O)NC6=O)C7=O)CC5)CC4)ncc3Cl)ccc2n(C(C)C)c1=O (stereo not shown) [compound 365, 2-{[6-({5-chloro-2-[4-({4-[2-(2,6-dioxopiperidin-3-yl)-1,3-dioxo-2,3-dihydro-1H-isoindol-5-yl]piperidin-1-yl}methyl)piperidin-1-yl]pyrimidin-4-yl}amino)-2-oxo-1-(propan-2-yl)-1,2-dihydroquinolin-3-yl]oxy}-N-methylacetamide]
8 | 50 to 70 | < 10 | CNC(=O)COc1cc2cc(Nc3nc(N4CCN(CC5(F)CCN(c6ccc(C(=O)NC7CCC(=O)NC7=O)c(OC)c6)CC5)CC4)ncc3Cl)ccc2n(C)c1=O (stereo not shown) [compound 367, 4-[4-({4-[5-chloro-4-({1-methyl-3-[(methylcarbamoyl)methoxy]-2-oxo-1,2-dihydroquinolin-6-yl}amino)pyrimidin-2-yl]piperazin-1-yl}methyl)-4-fluoropiperidin-1-yl]-N-(2,6-dioxopiperidin-3-yl)-2-methoxybenzamide]
9 |  | ≥ 100 | CNC(=O)COc1cc2cc(Nc3nc(NCCc4ccc(C(=O)NC5CCC(=O)NC5=O)nc4)ncc3Cl)ccc2n(C(C)C)c1=O (stereo not shown) [compound 373, 5-(2-{[5-chloro-4-({3-[(methylcarbamoyl)methoxy]-2-oxo-1-(propan-2-yl)-1,2-dihydroquinolin-6-yl}amino)pyrimidin-2-yl]amino}ethyl)-N-(2,6-dioxopiperidin-3-yl)pyridine-2-carboxamide]

The next lines start with the molecule.

Row | Structure (SMILES) | Dmax [%] | IC50 [nM]
10 | CNC(=O)COc1cc2cc(Nc3nc(N4C[C@@H](C)N(CC5CCN(c6cccc(C(=O)NC7CCC(=O)NC7=O)c6F)CC5)[C@@H](C)C4)ncc3Cl)ccc2n(C)c1=O (stereo partly drawn) [compound 355, 3-(4-{[(2R,6S)-4-[5-chloro-4-({1-methyl-3-[(methylcarbamoyl)methoxy]-2-oxo-1,2-dihydroquinolin-6-yl}amino)pyrimidin-2-yl]-2,6-dimethylpiperazin-1-yl]methyl}piperidin-1-yl)-N-(2,6-dioxopiperidin-3-yl)-2-fluorobenzamide] | 50 to 70 | 50 to 100
11 | CNC(=O)COc1cc2cc(Nc3nc(N4CCN(CC5CCN(c6ccc(C(=O)NC7CCC(=O)NC7=O)c(OC(C)C)c6)CC5)CC4)ncc3Cl)ccc2n(C)c1=O (stereo not shown) [compound 358, 4-[4-({4-[5-chloro-4-({1-methyl-3-[(methylcarbamoyl)methoxy]-2-oxo-1,2-dihydroquinolin-6-yl}amino)pyrimidin-2-yl]piperazin-1-yl}methyl)piperidin-1-yl]-N-(2,6-dioxopiperidin-3-yl)-2-(propan-2-yloxy)benzamide] |  | ≥ 100
12 | CNC(=O)COc1cc2cc(Nc3nc(N4CCC(CN5CCC(c6ccc(C(=O)NC7CCC(=O)NC7=O)o6)CC5)CC4)ncc3Cl)ccc2n(C)c1=O (stereo not shown) [compound 361, 5-[1-({1-[5-chloro-4-({1-methyl-3-[(methylcarbamoyl)methoxy]-2-oxo-1,2-dihydroquinolin-6-yl}amino)pyrimidin-2-yl]piperidin-4-yl}methyl)piperidin-4-yl]-N-(2,6-dioxopiperidin-3-yl)furan-2-carboxamide] | < 50 | 10 to 50
13 | CNC(=O)COc1cc2cc(Nc3nc(N4CCC(OC5CC6(C5)CN(c5cccc7c5C(=O)N(C5CCC(=O)NC5=O)C7=O)C6)CC4)ncc3Cl)ccc2n(C(C)C)c1=O (stereo not shown) [compound 363, 2-{[6-({5-chloro-2-[4-({2-[2-(2,6-dioxopiperidin-3-yl)-1,3-dioxo-2,3-dihydro-1H-isoindol-4-yl]-2-azaspiro[3.3]heptan-6-yl}oxy)piperidin-1-yl]pyrimidin-4-yl}amino)-2-oxo-1-(propan-2-yl)-1,2-dihydroquinolin-3-yl]oxy}-N-methylacetamide] | ≥ 70 | < 10
14 | CNC(=O)COc1cc2cc(Nc3nc(N4CCC(F)(CN5CCN(c6ccc(C(=O)NC7CCC(=O)NC7=O)c(OC)c6)CC5)CC4)ncc3Cl)ccc2n(C)c1=O (stereo not shown) [compound 366, 4-[4-({1-[5-chloro-4-({1-methyl-3-[(methylcarbamoyl)methoxy]-2-oxo-1,2-dihydroquinolin-6-yl}amino)pyrimidin-2-yl]-4-fluoropiperidin-4-yl}methyl)piperazin-1-yl]-N-(2,6-dioxopiperidin-3-yl)-2-methoxybenzamide] | 50 to 70 | < 10
15 | CNC(=O)COc1cc2cc(Nc3nc(N4CCN(CC5CCN(c6cc(OC)c(C(=O)NC7CCC(=O)NC7=O)c(OC)c6)CC5)CC4)ncc3Cl)ccc2n(C)c1=O (stereo not shown) [compound 368, 4-[4-({4-[5-chloro-4-({1-methyl-3-[(methylcarbamoyl)methoxy]-2-oxo-1,2-dihydroquinolin-6-yl}amino)pyrimidin-2-yl]piperazin-1-yl}methyl)piperidin-1-yl]-N-(2,6-dioxopiperidin-3-yl)-2,6-dimethoxybenzamide] | < 50 | 10 to 50
16 | CCn1c(=O)c(OCC(=O)NC)cc2cc(Nc3nc(N4CCN([C@H]5C[C@H](COc6ccc7c(c6)C(=O)N(C6CCC(=O)NC6=O)C7=O)N(C)C5)CC4)ncc3Cl)ccc21 (stereo partly drawn) [compound 371, 2-({6-[(5-chloro-2-{4-[(3S,5R)-5-({[2-(2,6-dioxopiperidin-3-yl)-1,3-dioxo-2,3-dihydro-1H-isoindol-5-yl]oxy}methyl)-1-methylpyrrolidin-3-yl]piperazin-1-yl}pyrimidin-4-yl)amino]-1-ethyl-2-oxo-1,2-dihydroquinolin-3-yl}oxy)-N-methylacetamide] | 50 to 70 | ≥ 100
17 | CNC(=O)COc1cc2cc(Nc3nc(N4CCC(CN5CCC6(CC5)CN(c5ccc7c(c5)C(=O)N(C5CCC(=O)NC5=O)C7=O)C6)CC4)ncc3Cl)ccc2n(C(C)C)c1=O (stereo not shown) [compound 372, 2-{[6-({5-chloro-2-[4-({2-[2-(2,6-dioxopiperidin-3-yl)-1,3-dioxo-2,3-dihydro-1H-isoindol-5-yl]-2,7-diazaspiro[3.5]nonan-7-yl}methyl)piperidin-1-yl]pyrimidin-4-yl}amino)-2-oxo-1-(propan-2-yl)-1,2-dihydroquinolin-3-yl]oxy}-N-methylacetamide] | 50 to 70 | < 10
18 | CNC(=O)COc1cc2cc(Nc3nc(N4CCC(CN5CC6(CCN(c7ccc8c(c7)C(=O)N(C7CCC(=O)NC7=O)C8=O)CC6)C5)CC4)ncc3Cl)ccc2n(C(C)C)c1=O (stereo not shown) [compound 374, 2-{[6-({5-chloro-2-[4-({7-[2-(2,6-dioxopiperidin-3-yl)-1,3-dioxo-2,3-dihydro-1H-isoindol-5-yl]-2,7-diazaspiro[3.5]nonan-2-yl}methyl)piperidin-1-yl]pyrimidin-4-yl}amino)-2-oxo-1-(propan-2-yl)-1,2-dihydroquinolin-3-yl]oxy}-N-methylacetamide] | ≥ 70 | < 10
